According to article PMC8070745, “FEN1 Blockade for Platinum Chemo-Sensitization and Synthetic Lethality in Epithelial Ovarian Cancers” (Cancers, 2021):

Experiments:
Format in all cases: cell-based, human
[1] = tested on: A2780 cells; test: Clonogenic assay, A2780
Protocol: Clonogenic assay: In the clonogenic assay (colony formation assays), 32 cells/cm2 were seeded in 6-well plates and left at 37°C in a 5% CO2 atmosphere. Cisplatin (5µM) and/or FEN1i (10µM) and/or Importazole (5 µM, Selleckem, S8446 ) were added at the indicated concentrations and the plates were left at 37 °C in a 5% CO 2 atmosphere for 14 days. Later, the plates were washed with PBS, fixed and stained with a crystal violet, acetic acid and methanol solution and colonies were counted. […]

[2] = tested on: A2780cis cells; test: Cell cycle progression, A2780cis; settings: FEN1i plus cisplatin
Protocol: with ice cold PBS and fixed in 70% ethanol for 1h at -20°C. After removal of the fixative solution by centrifugation, cells were stained with 2 µg/ml of phospho-Histone (γH2AX) Ser139 (16202A, Millipore, UK) to detect DSBs.
Cell cycle progression: Cells were treated with 20 µg/ml RNase A (12091021, Invitrogen) and then 10 µg/ml Propidium Iodide (P4170, Sigma Aldrich) was added to determine the cell cycle distribution. The samples were analysed on a Beckman-Coulter FC500 flow cytometer using a 488nm laser for excitation and emission data for PI collected using a 620nm bandpass filter (FL3) and a 525nm bandpass filter (FL1) for FITC-anti-phospho-Histone H2A.X. […]
Graphical representation and statistical analysis was performed in GraphPad Prism 7 (GraphPad, La Jolla, USA).
(§1) 3D Spheroid assays: A2780_control and A2780 FEN1_ KO as well as A2780cis_control and A2780cis FEN1_ KO cells were seeded at 4500 cells/cm2 density in ultra-low attachment 6-well plates (174932, Thermo Fisher Scientific) and cultured in 3D Tumorsphere Medium (C28070, PromoCell, UK) at 37°C in a 5% CO2 atmosphere. Cells were keep in culture for 7-10 days, toping up with fresh medium every two days until spheroids structures were formed.

[3] = tested on: A2780cis cells; test: Annexin V apoptosis detection, A2780cis; settings: FEN1i plus cisplatin
Protocol: Apoptosis detection: Annexin V detection kit (556547, BD Biosciences) was used to quantify apoptotic cells. Briefly, cells were trypsinized, washed with PBS and the cellular pellet was re-suspended in Anexin Binding Buffer (1×). Following, FITC Anexin V and Propidium Iodide were added to the cells. After incubation, Anexin binding Buffer (1×) was added to each tube. All the samples were analysed on a Beckman-Coulter FC500 flow cytometer. The percentage of apoptotic cells was determined (late apoptotic = FITC-Annexin V positive, PI positive early apoptotic = FITC-Annexin V positive, PI negative; live cells = FITC-Annexin V negative, PI negative) and compared for untreated and treated samples. Graphical representation and statistical analysis was performed in GraphPad Prism 7 (GraphPad, La Jolla, USA).
as §1

In the case of N.N.[Cl][Pt][Cl] [cisplatin], the cisplatin sensitivity [1] is reported as “cisplatin-sensitive”.

With Cc1csc2c1c(=O)n(O)c(=O)n2-c1ccccc1 [PTPD, 3-hydroxy-5-methyl-1-phenylthieno [2,3 d]pyrimidine-2,4(1H,3H)-dione] the cell cycle effect [2] was “G2/M cell cycle arrest” and the apoptosis [3] was “accumulation of apoptotic cells”.
